Experimental findings from patent publication US20110319362A1, “STAT3 LIGANDS AND THERAPEUTIC USES THEREOF” (priority 2008, published 2011) are described below.

What is called pIC50 is the IC50 on a negative log10 scale, so that one unit is a factor of ten.

The target in one experiment is T1, STAT3 protein (Homo sapiens, UniProt P40763).
T1 construct: human STAT3 protein (residues 122-722) fused to His-tag; His-tag
The experiment in a line: In vitro competitive STAT3 binding assay (fluorescence polarization). The gist of the method:
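FP competition: His-tagged human STAT3 (122-722), 150 nM, with 5 nM 5-Fam-labelled pYLPQTV phosphopeptide tracer (STT2) and titrated inhibitor, read after 2-3 h. IC50 = concentration displacing 50% of tracer, by nonlinear least-squares fit.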
On the technique in general: Fluorescence polarisation rises when a labelled molecule tumbles more slowly, as on binding a larger partner.

Experiment [1] has as its system MDA-MB-468 cancer cell line. The experiment in a line: Cell growth assay (WST-8). It is filed as cell-based. The following applies: Homo sapiens, MDA-MB-468, 96 h; WST-8, 4 days; read-out: Inhibition of cell growth IC50, MDA-MB-468 cancer cell line. In a few lines: (§1)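 Cells (3000–4000/well) grown 4 days with varied compound concentrations, then WST-8 dye added for 1–3 h and absorbance read at 450 nm. Growth inhibition expressed as sample-to-control absorbance ratio.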

Experiment [2] has as its system MDA-MB-231 cancer cell line. Kind of experiment: Cell growth assay (WST-8). The format is cell-based. To be noted: Homo sapiens, MDA-MB-231, 96 h; WST-8, 4 days; read-out: Inhibition of cell growth IC50, MDA-MB-231 cancer cell line. The gist of the method: as §1
(In general: Formazan colour is commonly taken as a measure of viable cells.)

The mark [3] stands for this setting: FP competitive binding, fluorescently tagged STT2 peptide tracer, read-out: Binding affinities to STAT3 IC50.

pIC50: −log10 of the molar value. Like-named read-outs stand apart in the source and are kept apart here. Bounds are passed on as bounds.

T1 sequence (P40763 122-722): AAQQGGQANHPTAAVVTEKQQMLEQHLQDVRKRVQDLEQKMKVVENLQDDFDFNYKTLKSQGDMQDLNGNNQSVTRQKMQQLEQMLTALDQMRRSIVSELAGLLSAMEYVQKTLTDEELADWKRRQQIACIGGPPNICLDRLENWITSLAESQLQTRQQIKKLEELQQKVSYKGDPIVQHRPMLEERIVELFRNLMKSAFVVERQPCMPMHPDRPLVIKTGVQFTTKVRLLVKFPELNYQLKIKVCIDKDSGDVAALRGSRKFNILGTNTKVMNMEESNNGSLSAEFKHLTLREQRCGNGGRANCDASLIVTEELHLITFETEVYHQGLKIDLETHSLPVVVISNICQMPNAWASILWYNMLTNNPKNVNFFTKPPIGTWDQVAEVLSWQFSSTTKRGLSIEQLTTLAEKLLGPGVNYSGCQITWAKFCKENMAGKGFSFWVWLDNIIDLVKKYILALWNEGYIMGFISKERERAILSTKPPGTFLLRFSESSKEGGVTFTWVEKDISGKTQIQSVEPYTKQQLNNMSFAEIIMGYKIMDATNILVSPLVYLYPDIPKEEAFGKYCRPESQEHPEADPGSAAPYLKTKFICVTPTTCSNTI

In the case of `NC(=O)CC[C@H](NC(=O)[C@@H]1CC[C@@H]2CCCC[C@H](NC(=O)CCc3ccc(CCC(=O)O)cc3)C(=O)N21)C(=O)NCc1ccccc1` [Example 5], the negative logarithm of the IC50 (pIC50) at STAT3 protein (setting [3]) is less than 4.00; in experiment [1], less than 4.00; in experiment [2], less than 4.30.

Take `CC(=O)N[C@@H](Cc1ccc(O)cc1)C(=O)N[C@H]1CCCC[C@H]2CC[C@@H](C(=O)N[C@@H](CCC(N)=O)C(=O)NCc3ccccc3)N2C1=O` [Example 6]: the pIC50 (on STAT3 protein (setting [3]); in experiment [1]; in experiment [2]) was less than 4.00 throughout.

Consider `CC(=O)N[C@@H](Cc1ccc(OCC(=O)O)cc1)C(=O)N[C@H]1CCCC[C@H]2CC[C@@H](C(=O)N[C@@H](CCC(N)=O)C(=O)NCc3ccccc3)N2C1=O` [Example 7], for which the pIC50 is less than 4.30 on STAT3 protein (setting [3]), less than 4.00 in experiment [1] and less than 4.00 in experiment [2].

With `C[C@H](NC(=O)[C@@H]1CC[C@@H]2CCCC[C@H](NC(=O)[C@H](Cc3ccc(OP(=O)(O)O)cc3)NC(=O)OCc3ccccc3)C(=O)N21)C(=O)NCc1ccccc1` [Example 8], the results for the pIC50 (at STAT3 protein; in experiment [1]; in experiment [2]) were less than 4.70, less than 5.00 and less than 5.00, respectively.

`O=C(N[C@@H](Cc1ccc(OP(=O)(O)O)cc1)C(=O)N[C@H]1CCCC[C@H]2CC[C@@H](Cn3cc(-c4ccccc4)nn3)N2C1=O)OCc1ccccc1` [Example 9]: the pIC50 was less than 4.70 on STAT3 protein (setting [3]), less than 5.30 in experiment [1] and less than 5.30 in experiment [2].

In the case of `C[C@H](NC(=O)[C@@H]1CC[C@@H]2CCCC[C@H](NC(=O)[C@@H](N)Cc3ccc(OC(C(=O)O)C(=O)O)cc3)C(=O)N21)C(=O)NCc1ccccc1` [Example 10], the negative logarithm of the IC50 (pIC50) at STAT3 protein (setting [3]) was less than 4.00; in experiment [1] it was less than 4.00; in experiment [2], less than 4.30.

As for `N=C(N)NCCC[C@H](NC(=O)[C@@H]1CC[C@@H]2CCCC[C@H](NC(=O)[C@H](Cc3ccc(OP(=O)(O)O)cc3)NC(=O)OCc3ccccc3)C(=O)N21)C(=O)NCc1ccccc1` [Example 11], the negative-log IC50 (pIC50) was less than 5.30 on STAT3 protein, less than 4.00 in experiment [1] and less than 4.30 in experiment [2].

Regarding `N=C(N)NCCC[C@H](NC(=O)[C@@H]1CC[C@@H]2CCCC[C@H](NC(=O)[C@@H](N)Cc3ccc(OP(=O)(O)O)cc3)C(=O)N21)C(=O)NCc1ccccc1` [Example 12], the values for the pIC50 (on STAT3 protein (setting [3]); in experiment [1]; in experiment [2]) were less than 5.30, less than 4.00 and greater than 4.30, respectively.

With `CNC(=O)[C@H](CCC(N)=O)NC(=O)[C@@H]1CC[C@@H]2CCCC[C@H](NC(=O)[C@H](Cc3ccc(OP(=O)(O)O)cc3)NC(=O)OCc3ccccc3)C(=O)N21` [Example 13], the figures for the pIC50 (on STAT3 protein; in experiment [1]; in experiment [2]) were greater than 6.00, less than 4.00 and less than 4.00, respectively.

`NCCCCNC(=O)[C@@H]1CC[C@@H]2CCCC[C@H](NC(=O)[C@H](Cc3ccc(OP(=O)(O)O)cc3)NC(=O)OCc3ccccc3)C(=O)N21` [Example 14]: the pIC50 is greater than 5.00 at STAT3 protein (setting [3]), less than 4.00 in experiment [1] and less than 4.00 in experiment [2].

Turning to `CCCNC(=O)[C@@H]1CC[C@@H]2CCCC[C@H](NC(=O)[C@H](Cc3ccc(OP(=O)(O)O)cc3)NC(=O)OCc3ccccc3)C(=O)N21` [Example 15], the results for the pIC50 (on STAT3 protein (setting [3]); in experiment [1]; in experiment [2]) were greater than 4.52, less than 4.00 and less than 4.52, respectively.

For `NC(=O)CCCNC(=O)[C@@H]1CCC2CCCC[C@H](NC(=O)[C@H](Cc3ccc(OP(=O)(O)O)cc3)NC(=O)OCc3ccccc3)C(=O)N21` (stereo partly drawn) [Example 16], the pIC50 was greater than 4.52 on STAT3 protein (setting [3]), less than 4.00 in experiment [1] and less than 4.00 in experiment [2].

On to `CNC(=O)CCCNC(=O)[C@@H]1CC[C@@H]2CCCC[C@H](NC(=O)[C@H](Cc3ccc(OP(=O)(O)O)cc3)NC(=O)OCc3ccccc3)C(=O)N21` [Example 17], for which the pIC50 is greater than 4.52 on STAT3 protein (setting [3]), less than 4.00 in experiment [1] and less than 4.00 in experiment [2].

With `CN(C)C(=O)CCCNC(=O)[C@@H]1CC[C@@H]2CCCC[C@H](NC(=O)[C@H](Cc3ccc(OP(=O)(O)O)cc3)NC(=O)OCc3ccccc3)C(=O)N21` [Example 18], the values for the pIC50 (at STAT3 protein (setting [3]); in experiment [1]; in experiment [2]) were greater than 4.52, less than 4.00 and less than 4.00, respectively.

With `CNCCCNC(=O)[C@@H]1CC[C@@H]2CCCC[C@H](NC(=O)[C@H](Cc3ccc(OP(=O)(O)O)cc3)NC(=O)OCc3ccccc3)C(=O)N21` [Example 19], the pIC50 was greater than 4.00 at STAT3 protein (setting [3]), less than 4.00 in experiment [1] and less than 4.00 in experiment [2].

As to `NCCC[C@H](NC(=O)[C@@H]1CC[C@@H]2CCCC[C@H](NC(=O)[C@H](Cc3ccc(OP(=O)(O)O)cc3)NC(=O)OCc3ccccc3)C(=O)N21)C(=O)NCc1ccccc1` [Example 20], the pIC50 at STAT3 protein was greater than 5.00; in experiment [1] it was less than 4.00; in experiment [2], less than 4.30.

For `CNC(=O)[C@H](CCCN)NC(=O)[C@@H]1CC[C@@H]2CCCC[C@H](NC(=O)[C@H](Cc3ccc(OP(=O)(O)O)cc3)NC(=O)OCc3ccccc3)C(=O)N21` [Example 21], the figures for the pIC50 (on STAT3 protein; in experiment [1]; in experiment [2]) were greater than 5.00, less than 4.00 and less than 4.00, respectively.

Consider `O=C(N[C@@H](Cc1ccc(OP(=O)(O)O)cc1)C(=O)N[C@H]1CCCC[C@H]2CC[C@@H](C(=O)N[C@@H](Cc3c[nH]cn3)C(=O)NCc3ccccc3)N2C1=O)OCc1ccccc1` [Example 22], for which the pIC50 at STAT3 protein was greater than 5.00; in experiment [1] it was less than 4.00; in experiment [2] it was less than 4.30.

`NC(=O)CC[C@H](NC(=O)[C@@H]1CC[C@@H]2CCCC[C@H](NC(=O)CCc3ccc(O)c(C(=O)O)c3)C(=O)N21)C(=O)NCc1ccccc1` [Example 24]: the pIC50 (on STAT3 protein (setting [3]); in experiment [1]; in experiment [2]) was less than 4.00 each time.

For `NC(=O)CC[C@H](NC(=O)[C@@H]1CC[C@@H]2CCCC[C@H](NC(=O)CCc3ccc(CP(=O)(O)O)cc3)C(=O)N21)C(=O)NCc1ccccc1` [Example 25], the pIC50 (on STAT3 protein (setting [3]); in experiment [1]; in experiment [2]) was less than 4.00 throughout.

Take `N[C@@H](Cc1ccc(CP(=O)(O)O)cc1)C(=O)N[C@H]1CCCC[C@H]2CC[C@@H](C(=O)N[C@@H](Cc3c[nH]cn3)C(=O)NCc3ccccc3)N2C1=O` [Example 26]: the negative logarithm of the IC50 (pIC50) is less than 5.00 on STAT3 protein (setting [3]), less than 4.00 in experiment [1] and less than 4.00 in experiment [2].

For the compound `NC(=O)CC[C@H](NC(=O)[C@@H]1CC[C@@H]2CCCC[C@H](NC(=O)[C@@H](N)Cc3ccc(CP(=O)(O)O)cc3)C(=O)N21)C(=O)NCc1ccccc1` [Example 29], the pIC50 at STAT3 protein is greater than 4.52; in experiment [1], less than 4.00; in experiment [2], less than 4.00.

Consider `CC(=O)N[C@@H](Cc1ccc(CP(=O)(O)O)cc1)C(=O)N[C@H]1CCCC[C@H]2CC[C@@H](C(=O)N[C@@H](CCC(N)=O)C(=O)NCc3ccccc3)N2C1=O` [Example 30], for which the pIC50 at STAT3 protein is greater than 4.52; in experiment [1], less than 4.00; in experiment [2] it was less than 4.00.

For `CCCCCCCCCCCCCCCC(=O)N[C@@H](Cc1ccc(OP(=O)(O)O)cc1)C(=O)NC1CCCC[C@H]2CC[C@@H](C(=O)N[C@@H](CCC(N)=O)C(=O)NCc3ccccc3)N2C1=O` (stereo partly drawn) [Example 37], the pIC50 is greater than 5.00 on STAT3 protein, greater than 4.30 in experiment [1] and greater than 4.30 in experiment [2].
